Results: ChEMBL document CHEMBL1131345, “Synthesis of N-(1-ethyl-4-methylhexahydro-1,4-diazepin-6-yl)nicotinamides and their affinities for 5-HT3 and dopamine D2 receptors” (Bioorg Med Chem Lett, 1998)

Assays:
[1] = target: T1, Serotonin 3 (5-HT3) receptor (Rattus norvegicus, UniProt P35563+Q9JJ16); assay: Inhibition of [3H]GR-65630 binding to rat cortical membrane 5-hydroxytryptamine 3 receptor
T1 sequence (P35563 whole entry): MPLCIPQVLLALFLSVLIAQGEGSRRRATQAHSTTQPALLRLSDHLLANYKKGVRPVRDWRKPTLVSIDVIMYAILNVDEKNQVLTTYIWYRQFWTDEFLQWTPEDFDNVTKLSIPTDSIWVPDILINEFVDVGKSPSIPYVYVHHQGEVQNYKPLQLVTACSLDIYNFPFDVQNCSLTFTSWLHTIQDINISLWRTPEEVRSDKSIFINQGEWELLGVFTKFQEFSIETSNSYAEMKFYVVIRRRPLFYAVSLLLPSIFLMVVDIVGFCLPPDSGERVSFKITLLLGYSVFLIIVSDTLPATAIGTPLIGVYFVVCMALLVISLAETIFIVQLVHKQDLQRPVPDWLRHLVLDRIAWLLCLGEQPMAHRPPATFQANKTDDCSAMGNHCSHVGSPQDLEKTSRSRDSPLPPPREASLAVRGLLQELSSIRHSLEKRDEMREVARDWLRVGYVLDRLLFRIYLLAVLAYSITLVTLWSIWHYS
T1 sequence (Q9JJ16 whole entry): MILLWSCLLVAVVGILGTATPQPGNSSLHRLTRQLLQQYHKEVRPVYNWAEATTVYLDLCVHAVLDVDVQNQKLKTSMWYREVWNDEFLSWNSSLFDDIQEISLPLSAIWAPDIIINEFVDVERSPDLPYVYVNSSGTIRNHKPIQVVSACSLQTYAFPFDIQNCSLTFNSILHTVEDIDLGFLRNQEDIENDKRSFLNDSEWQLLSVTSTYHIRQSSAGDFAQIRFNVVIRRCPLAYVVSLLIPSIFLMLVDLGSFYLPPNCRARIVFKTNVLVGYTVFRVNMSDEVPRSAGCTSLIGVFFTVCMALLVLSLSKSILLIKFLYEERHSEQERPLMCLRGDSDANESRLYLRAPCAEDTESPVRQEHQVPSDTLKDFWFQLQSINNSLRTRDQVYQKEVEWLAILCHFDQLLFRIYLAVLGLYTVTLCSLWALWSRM

D(2) dopamine receptor = D(2) dopamine receptor (Rattus norvegicus, UniProt P61169); assay: Inhibition of [3H]- spiperone binding to rat brain Dopamine receptor D2
Chain of D(2) dopamine receptor (P61169 whole entry): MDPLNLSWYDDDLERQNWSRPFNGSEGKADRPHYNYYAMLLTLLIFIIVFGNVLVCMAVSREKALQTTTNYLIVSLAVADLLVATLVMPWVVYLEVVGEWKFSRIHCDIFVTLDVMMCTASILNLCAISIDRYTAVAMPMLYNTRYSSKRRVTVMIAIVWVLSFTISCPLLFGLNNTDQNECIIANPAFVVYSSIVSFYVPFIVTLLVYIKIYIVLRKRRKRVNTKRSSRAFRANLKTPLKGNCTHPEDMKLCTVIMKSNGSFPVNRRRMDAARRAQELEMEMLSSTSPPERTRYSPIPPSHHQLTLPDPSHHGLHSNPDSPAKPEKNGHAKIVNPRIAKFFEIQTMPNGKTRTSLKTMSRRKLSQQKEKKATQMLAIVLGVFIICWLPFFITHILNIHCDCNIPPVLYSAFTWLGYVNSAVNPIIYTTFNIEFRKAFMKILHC

| SMILES | IC50 [1] [nM] | IC50 (D(2) dopamine receptor) [nM] |
| --- | --- | --- |
| CCN1CCN(C)CC(NC(=O)c2cc(Br)c(N(C)C)nc2OC)C1 (stereo not drawn) | 9.9 | 75 |
| CCN1CCN(C)CC(NC(=O)c2cc(Cl)c(N)nc2OC)C1 (stereo not drawn) | 5.1 | 386 |
| CCN1CCN(C)C[C@H](NC(=O)c2cc(Cl)c(NC)nc2OC)C1 | 2.1 | 202 |
| CCN1CCN(C)CC(NC(=O)c2cc(Br)c(NC)nc2OC)C1 (stereo not drawn) | 1 | 23 |
| CCN1CCN(C)CC(NC(=O)c2cc(Cl)c(NC)nc2OC)C1 (stereo not drawn) | 1.3 | 43 |
| CCN1CCN(C)C[C@@H](NC(=O)c2cc(Cl)c(NC)nc2OC)C1 | 1.6 | 18 |
| CCNc1nc(OC)c(C(=O)NC2CN(C)CCN(CC)C2)cc1Br (stereo not drawn) | 3.8 | 48 |
| CCNc1nc(OC)c(C(=O)NC2CN(C)CCN(CC)C2)cc1Cl (stereo not drawn) | 2 | 76 |
| CCN1CCN(C)C[C@@H](NC(=O)c2cc(Br)c(NC)nc2OC)C1 | 1.1 | 12 |
| CCN1CCN(C)C[C@H](NC(=O)c2cc(Br)c(NC)nc2OC)C1 | 1.2 | 81 |
| CCN(CC)CCNC(=O)c1cc(Cl)c(N)cc1OC [METOCLOPRAMIDE] | 880 |  |
| CCN1CCN(C)C[C@@H](NC(=O)c2cc(Cl)c(NC)cc2OC)C1 | 2.9 | 35 |
